Counter-ions that a name gives are not always drawn. Like-named read-outs stand apart in the source and are kept apart here.
Tests used:
human OPRM1 (μ, MOR) [1] = target: T1, human OPRM1 (μ, MOR) (Homo sapiens, UniProt P35372); format: cell-based; conditions: for ΔRA of compound: relative activity from EC50 and Emax of β-arrestin vs cAMP, lower RA = more G-protein biased
T1 construct: host or cells: CHO-K1
Protocol: In certain embodiments, the ability of a compound to activate G-protein or β-arrestin is not an on/off switch for a given pathway, but rather a continuous function. To capture this, each compound is measured for activity in cell assays that are linked to β-arrestin recruitment and G-protein signaling. By comparing the activity between these two measures (accounting for both EC50 and maximal response reached, Emax) a relative activity (RA) value is determined.
In the case of MOR it is desirable to have high activation of the G-protein pathway while reducing activation of β-arrestin. In the case of the formula above, this means a lower RA.

human OPRM1 (μ, MOR) [2] = target: T1, human OPRM1 (μ, MOR); assay: cell-based; conditions: for Emax: OPRM1, read-out: β-Arrestin Emax; for EC50: PathHunter human OPRM1 Arrestin CHO-K1 cell line, read-out: β-Arrestin EC50
Protocol: The Discoverx PathHunter® β-Arrestin assay is used to measure β-arrestin-2 activity. The technology is based on Enzyme Fragment Complementation (EFC) with β-galactosidase (β-Gal) as the reporter. […] EA is fused to Q-arrestin-2, and ED is fused to the C-terminus of the GPCR of interest. When a ligand binds and the GPCR is activated, Q-arrestin-2 is recruited to the receptor resulting in an ED/EA complementation, restoring f-Gal activity, which is measured using chemiluminescence. For this assay, the PathHunter human OPRM1 (μ, MOR) Arrestin CHO-K1 cell line was used.

human OPRM1 (μ, MOR) [3] = target: T1, human OPRM1 (μ, MOR); assay: cell-based; conditions: for Emax: OPRM1, read-out: cAMP Emax; for EC50: PathHunter human OPRM1 Arrestin CHO-K1 cell line, read-out: cAMP EC50
Protocol: G-protein signaling was measured via second messenger cAMP modulation. Detection of cAMP modulation was accomplished in the PathHunter human OPRM1 (μ, MOR) Arrestin CHO-K1 cell line using the Dynamic2 cAMP Kit from Cisbio.

T1 sequence (P35372 whole entry): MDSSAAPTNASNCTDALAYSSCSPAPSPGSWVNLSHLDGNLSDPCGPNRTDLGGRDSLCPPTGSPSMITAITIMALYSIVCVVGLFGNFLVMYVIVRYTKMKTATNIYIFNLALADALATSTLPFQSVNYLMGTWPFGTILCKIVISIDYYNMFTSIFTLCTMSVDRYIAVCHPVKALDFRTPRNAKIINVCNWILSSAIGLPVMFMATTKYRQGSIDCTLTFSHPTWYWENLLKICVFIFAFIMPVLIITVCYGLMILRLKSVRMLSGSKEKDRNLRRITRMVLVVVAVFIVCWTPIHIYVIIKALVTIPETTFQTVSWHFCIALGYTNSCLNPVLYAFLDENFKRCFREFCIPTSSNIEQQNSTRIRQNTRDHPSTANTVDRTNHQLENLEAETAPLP

SMILES	Bias Factor (ΔRA of compound relative to ΔRA of DAMGO) × 10 (human OPRM1 (μ, MOR) [1])	ΔRA of compound (human OPRM1 (μ, MOR) [1])	Emax (human OPRM1 (μ, MOR) [2]) [%]	EC50 (human OPRM1 (μ, MOR) [2]) [nM]	Emax (human OPRM1 (μ, MOR) [3]) [%]	EC50 (human OPRM1 (μ, MOR) [3]) [nM]	Bias Factor (ΔRA of compound relative to ΔRA of DAMGO) × 10 (human OPRM1 (μ, MOR) [1]; hydrochloride)	ΔRA of compound (human OPRM1 (μ, MOR) [1]; hydrochloride)
COc1ccc(C(CNC(=O)N2Cc3ccc(F)cc3C2)N(C)C)cc1 (stereo not drawn) [Compound 16a, N-(2-(Dimethylamino)-2-(4-methoxyphenyl)ethyl)-5-fluoroisoindoline-2-carboxamide hydrochloride]	−9.60	−2.44	12.2	950	91.9	26	–	–
CN(C)C(CNC(=O)N1Cc2ccc(F)cc2C1)c1ccc(F)cc1Cl (stereo not drawn) [Compound 17a, N-(2-(2-Chloro-4-fluorophenyl)-2-(dimethylamino)ethyl)-5-fluoroisoindoline-2-carboxamide hydrochloride]	−12.08	−2.69	27	5120	111	43	–	–
CN(C)C(CNC(=O)N1Cc2ccccc2C1)c1ccccc1 (stereo not drawn) [Compound 18a, N-(2-(Dimethylamino)-2-phenylethyl)isoindoline-2-carboxamide hydrochloride]	–	–	6.91	730	100	23	−11.84	−2.66
CN(C)C(CNC(=O)NC1CCc2ccccc2C1)c1ccccc1 (stereo not drawn) [Compound 19a, 1-(2-(Dimethylamino)-2-phenylethyl)-3-(1,2,3,4-tetrahydronaphthalen-2-yl)urea hydrochloride]	<−14.83	<−2.96	2.34	> 100000	86.1	32	–	–
CN(C)C(CNC(=O)N1Cc2ccc(F)cc2C1)c1ccccc1 (stereo not drawn) [Compound 20a, N-(2-(Dimethylamino)-2-phenylethyl)-5-fluoroisoindoline-2-carboxamide hydrochloride]	<−14.83	<−2.96	3.65	> 100000	70.8	31	–	–
CN(C)C(CNC(=O)N1Cc2ccc(O)cc2C1)c1ccsc1 (stereo not drawn) [Compound 22, N-(2-(Dimethylamino)-2-(thiophen-3-yl)ethyl)-5-hydroxyisoindoline-2-carboxamide hydrobromide]	<−14.83	<−2.96	< 1	> 100000	16.3	322	–	–
CN(C)C(CNC(=O)N1Cc2ccc(O)cc2C1)c1ccc(O)cc1 (stereo not drawn) [Compound 24, N-(2-(dimethylamino)-2-(4-hydroxyphenyl)ethyl)-5-hydroxyisoindoline-2-carboxamide hydrobromide]	<−14.83	<−2.96	< 1	> 100000	< 10	> 100000	–	–
CN(C)[C@H](CCNC(=O)N1Cc2ccc(F)cc2C1)c1ccsc1 [Compound 30-R, (R)—N-(3-(Dimethylamino)-3-(thiophen-3-yl)propyl)-5-fluoroisoindoline-2-carboxamide]	−5.73	−2.05	9.2	5730	109	603	–	–
CN(C)[C@@H](CCNC(=O)N1Cc2ccc(F)cc2C1)c1ccsc1 [Compound 30-S, (S)—N-(3-(Dimethylamino)-3-(thiophen-3-yl)propyl)-5-fluoroisoindoline-2-carboxamide]	<−14.83	<−2.96	9.9	> 100000	96.1	688	–	–
CNC(CNC(=O)N1Cc2ccc(F)cc2C1)c1ccsc1 (stereo not drawn) [Compound 35, 5-Fluoro-N-(2-(methylamino)-2-(thiophen-3-yl)ethyl)isoindoline-2-carboxamide]	<−14.83	<−2.96	< 1	> 100000	26.4	1170	–	–
CNC(CNC(=O)N1Cc2ccccc2C1)c1ccccc1 (stereo not drawn) [Compound 38, N-(2-(methylamino)-2-phenylethyl)isoindoline-2-carboxamide]	−12.56	−2.74	6.6	1670	95.9	45	–	–
CN(C)C(CNC(=O)N(C)[C@H]1CCCc2ccccc21)c1ccsc1 (stereo partly drawn) [Compound 39]	−1.90	−1.67	10.9	644	93.4	118	–	–
CN(C)C(CNC(=O)N1CC[C@H](c2ccccc2)C1)c1ccsc1 (stereo partly drawn) [Compound 40]	<−14.83	<−2.96	3.3	> 100000	53.5	152	–	–
